Measurements from US8247211B2, “Glycopeptide antibiotics” (American Cyanamid Company, priority 2001, dated 2012).
≈ marks a conversion by molar mass, not a printed value.

What was measured:
Assay in all cases: In vitro antibacterial evaluation: minimum inhibitory concentration (MIC), broth dilution method
Assay type in all cases: cell-based
Enterococcus sp. = details: 18 hours at 35° C.
Summary of the method: (§1)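 NCCLS M7-A2 broth dilution with Mueller-Hinton II, testing 64-0.06 μg/mL antibiotic against 5×10^5 CFU/mL inocula. Test strains include recent methicillin-, penicillin- or vancomycin-resistant clinical isolates. MIC is the lowest concentration preventing growth.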

Escherichia coli = details: 18 hours at 35° C.
Summary of the method: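 Inoculum: 5×10^5 CFU/mL. Range: 64-0.06 μg/mL. Medium: Muller-Hinton II […]; NCCLS M7-A2 broth dilution. Endpoint: lowest concentration inhibiting growth. Strains include methicillin-, penicillin- and/or vancomycin-resistant clinical isolates.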

Staphylococcus sp. = tested on: Staphylococcus sp.
Summary of the method: as §1

Streptococcus sp. = details: 18 hours at 35° C.
Summary of the method: as §1

[1] = broth dilution, inoculum 5×10^5 CFU/mL

## CC(c1ccccc1)C1NC(=O)CNC(=O)C(CO)NC(=O)C(C(O)C2CNC(=N)N2C2OC(CO)C(O)C(O)C2O)NC(=O)C(C(O)C2CNC(=N)N2)NC(=O)C(Cc2ccc(OC3OC(CO)C(OC4OC5COC6(OC5C(O)C4O)C4CCCC6CCC4)C(O)C3O)cc2)NC1=O (stereo not drawn) [Example 212, Cyclo[glycyl-β-methylphenylalanyl-O-[4-O-(4,6-O-bicyclo[3.3.1]non-9-ylidenehexopyranosyl]hexopyranosyl]tyrosyl-3-(2-iminoimidazolidin-4-yl)seryl-3-(3-hexopyranosyl-2-iminoimidazolidin-4-yl)serylseryl]]
Enterococcus sp.; Enterococcus avium (GC 4558)
  MIC Enterococcus avium (GC 4558): 4 µg/mL (≈ 2.83 µM)
Enterococcus sp.; Enterococcus faecalis (ATCC 29212)
  MIC Enterococcus faecalis (ATCC 29212): 8 µg/mL (≈ 5.65 µM)
Enterococcus sp.; Enterococcus faecalis (GC 2242)
  MIC Enterococcus faecalis (GC 2242): 8 µg/mL (≈ 5.65 µM)
Enterococcus sp.; Enterococcus faecalis (GC 2691)
  MIC Enterococcus faecalis (GC 2691): 8 µg/mL (≈ 5.65 µM)
Enterococcus sp.; Enterococcus faecalis (GC 3059)
  MIC Enterococcus faecalis (GC 3059): 8 µg/mL (≈ 5.65 µM)
Enterococcus sp.; Enterococcus faecalis (GC 4552)
  MIC Enterococcus faecalis (GC 4552): 8 µg/mL (≈ 5.65 µM)
Enterococcus sp.; Enterococcus faecalis (GC 4553)
  MIC Enterococcus faecalis (GC 4553): 8 µg/mL (≈ 5.65 µM)
Enterococcus sp.; Enterococcus faecalis (GC 4554)
  MIC Enterococcus faecalis (GC 4554): 8 µg/mL (≈ 5.65 µM)
Enterococcus sp.; Enterococcus faecalis (GC 6189)
  MIC Enterococcus faecalis (GC 6189): 8 µg/mL (≈ 5.65 µM)
Enterococcus sp.; Enterococcus faecium (GC 2243)
  MIC Enterococcus faecium (GC 2243): 8 µg/mL (≈ 5.65 µM)
Enterococcus sp.; Enterococcus faecium (GC 4556)
  MIC Enterococcus faecium (GC 4556): 8 µg/mL (≈ 5.65 µM)
Enterococcus sp.; Enterococcus faecium (GC 4557)
  MIC Enterococcus faecium (GC 4557): 4 µg/mL (≈ 2.83 µM)
Enterococcus sp.; [1]
  MIC Enterococcus avium (GC 4558): 4 µg/mL (≈ 2.83 µM)
  MIC Enterococcus faecalis (ATCC 29212): 8 µg/mL (≈ 5.65 µM)
  MIC Enterococcus faecalis (GC 2242): 8 µg/mL (≈ 5.65 µM)
  MIC Enterococcus faecalis (GC 2691): 8 µg/mL (≈ 5.65 µM)
  MIC Enterococcus faecalis (GC 3059): 8 µg/mL (≈ 5.65 µM)
  MIC Enterococcus faecalis (GC 4552): 8 µg/mL (≈ 5.65 µM)
  MIC Enterococcus faecalis (GC 4553): 8 µg/mL (≈ 5.65 µM)
  MIC Enterococcus faecalis (GC 4554): 8 µg/mL (≈ 5.65 µM)
  MIC Enterococcus faecalis (GC 6189): 8 µg/mL (≈ 5.65 µM)
  MIC Enterococcus faecium (GC 2243): 8 µg/mL (≈ 5.65 µM)
  MIC Enterococcus faecium (GC 4556): 8 µg/mL (≈ 5.65 µM)
  MIC Enterococcus faecium (GC 4557): 4 µg/mL (≈ 2.83 µM)
Escherichia coli; Escherichia coli (ATCC 25922)
  MIC Escherichia coli (ATCC 25922): 32 µg/mL (≈ 22.6 µM)
Escherichia coli; Escherichia coli (GC 4559)
  MIC Escherichia coli (GC 4559): 32 µg/mL (≈ 22.6 µM)
Escherichia coli; Escherichia coli (GC 4560)
  MIC Escherichia coli (GC 4560): 2 µg/mL (≈ 1.41 µM)
Staphylococcus sp.; strain ATCC 29213
  MIC Staphylococcus aureus (ATCC 29213): 2 µg/mL (≈ 1.41 µM)
Staphylococcus sp.; strain GC 1131
  MIC Staphylococcus aureus (GC 1131): 4 µg/mL (≈ 2.83 µM)
Staphylococcus sp.; strain GC 3051
  MIC Staphylococcus aureus (GC 3051): 2 µg/mL (≈ 1.41 µM)
Staphylococcus sp.; strain GC 3053
  MIC Staphylococcus aureus (GC 3053): 4 µg/mL (≈ 2.83 µM)
Staphylococcus sp.; strain GC 4541
  MIC Staphylococcus aureus (GC 4541): 2 µg/mL (≈ 1.41 µM)
Staphylococcus sp.; strain GC 4542
  MIC Staphylococcus aureus (GC 4542): 2 µg/mL (≈ 1.41 µM)
Staphylococcus sp.; strain GC 4543
  MIC Staphylococcus aureus-SMITH (GC 4543): 2 µg/mL (≈ 1.41 µM)
Staphylococcus sp.; strain GC 4544
  MIC Staphylococcus aureus (GC 4544): 4 µg/mL (≈ 2.83 µM)
Staphylococcus sp.; strain GC 4545
  MIC Staphylococcus aureus (GC 4545): 2 µg/mL (≈ 1.41 µM)
Staphylococcus sp.; strain GC 4546
  MIC Staphylococcus haemolyticus (GC 4546): 2 µg/mL (≈ 1.41 µM)
Staphylococcus sp.; strain GC 4547
  MIC Coagulase Negative Staphylococcus (GC 4547): 2 µg/mL (≈ 1.41 µM)
Staphylococcus sp.; strain GC 4548
  MIC Coagulase Negative Staphylococcus (GC 4548): 2 µg/mL (≈ 1.41 µM)
Staphylococcus sp.; strain GC 4549
  MIC Coagulase Negative Staphylococcus (GC 4549): 2 µg/mL (≈ 1.41 µM)
Staphylococcus sp.; strain GC 4551
  MIC Coagulase Negative Staphylococcus (GC 4551): 2 µg/mL (≈ 1.41 µM)
Staphylococcus sp.; strain GC 6257
  MIC Coagulase Negative Staphylococcus (GC 6257): 1 µg/mL (≈ 0.706 µM)
Streptococcus sp.; Streptococcus agalactiae (GC 4564)
  MIC Streptococcus agalactiae (GC 4564): 1 µg/mL (≈ 0.706 µM)
Streptococcus sp.; Streptococcus pneumoniae (ATCC 6301)
  MIC Streptococcus pneumoniae (ATCC 6301): 0.5 µg/mL (≈ 0.353 µM)
Streptococcus sp.; Streptococcus pneumoniae (GC 1894)
  MIC Streptococcus pneumoniae (GC 1894): <0.06 µg/mL
Streptococcus sp.; Streptococcus pneumoniae (GC 4565)
  MIC Streptococcus pneumoniae (GC 4565): 0.25 µg/mL (≈ 0.177 µM)
Streptococcus sp.; Streptococcus pyogenes (GC 4563)
  MIC Streptococcus pyogenes (GC 4563): 1 µg/mL (≈ 0.706 µM)
Streptococcus sp.; [1]
  MIC Streptococcus agalactiae (GC 4564): 1 µg/mL (≈ 0.706 µM)
  MIC Streptococcus pneumoniae (ATCC 6301): 0.5 µg/mL (≈ 0.353 µM)
  MIC Streptococcus pneumoniae (GC 1894): <0.06 µg/mL
  MIC Streptococcus pneumoniae (GC 4565): 0.25 µg/mL (≈ 0.177 µM)
  MIC Streptococcus pyogenes (GC 4563): 1 µg/mL (≈ 0.706 µM)
